According to US11091478B2 (Fochon Pharmaceuticals, Ltd., priority 2017, dated 2021):
Like-named read-outs stand apart in the source and are kept apart here.

Legend:
[1] = system: DOHH2 cells; assay: Cell proliferation assay (MTS), DOHH2 cells, 120 h; assay type: cell-based
Outline: (§1)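 Cells in RPMI-1640 with 10% FBS were seeded at 5000/well, left overnight at 37° C., 5% CO2, then exposed to compound at 10000 down to 1.5 nM (nine concentrations) for 72 h (RS4;11) or 120 h (DOHH2). Viability was read by MTS, 2 h, absorbance at 490/650 nm; IC50 calculated.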

[2] = system: RS4;11 cells; assay: Cell proliferation assay (MTS), RS4;11 cells, 72 h; assay type: cell-based
Outline: as §1

Row | Structure (SMILES) | IC50 ([1]; Homo sapiens, DOHH-2, 120 h) [nM] | IC50 ([2]; Homo sapiens, RS4-11, 72 h) [nM] | IC50 [1] [nM] | IC50 [2] [nM]
1 | CC1(C)CCC(CN2CCN(c3ccc(C(=O)NS(=O)(=O)c4cc5c(c([N+](=O)[O-])c4)N[C@H](Cc4ccc(Cl)cc4)CO5)c(Oc4cnc5[nH]ccc5c4)c3)CC2)=C(c2ccc(Cl)cc2)C1 [Example 2-160, (R)-2-((1H-pyrrolo[2,3-b]pyridin-5-yl)oxy)-4-(4-((4′-chloro-5,5-dimethyl-3,4,5,6-tetra-hydro-[1,1′-biphenyl]-2-yl)methyl)piperazin-yl)-N-((3-(4-chlorobenzyl)-5-nitro-3,4-dihydro-2H-benzo[b][1,4]oxazin-7-yl)sulfo-nyl)benzamide] | 168 | 95 | – | –
2 | CN1CCC(C[C@@H]2COc3cc(S(=O)(=O)NC(=O)c4ccc(N5CCN(CC6=C(c7ccc(Cl)cc7)CC(C)(C)CC6)CC5)cc4Oc4cnc5[nH]ccc5c4)cc([N+](=O)[O-])c3N2)CC1 [Example 2-201, (R)-2-((1H-pyrrolo[2,3-b]pyridin-5-yl)oxy)-4-(4-((4′-chloro-5,5-dimethyl-3,4,5,6-tetra-hydro-[1,1′-biphenyl]-2-yl)methyl)piperazin-1-yl)-N-((3-((1-methylpiperidin-4-yl)meth-yl)-5-nitro-3,4-dihydro-2H-benzo[b][1,4]ox-azin-7-yl)sulfonyl)benzamide] | 145 | 22 | – | –
3 | C[C@@H]1CN(CC[C@@H]2COc3cc(S(=O)(=O)NC(=O)c4ccc(N5CCN(CC6=C(c7ccc(Cl)cc7)CC(C)(C)CC6)CC5)cc4Oc4cnc5[nH]ccc5c4)cc([N+](=O)[O-])c3N2)CCN1C1COC1 [Example 2-39, 2-((1H-pyrrolo[2,3-b]pyridin-5-yl)oxy)-4-(4-((4′-chloro-5,5-dimethyl-3,4,5,6-tetrahydro-[1,1′-biphenyl]-2-yl)methyl)piperazin-1-yl)-N-(((R)-3-(2-((R)-3-methyl-4-(oxetan-3-yl)piperazin-1-yl)ethyl)-5-nitro-3,4-dihydro-2H-benzo[b][1,4]oxazin-7-yl)sulfonyl) benzamide] | 33 | 9 | – | –
4 | CN1CCN(C[C@@H]2Cc3cc(S(=O)(=O)NC(=O)c4ccc(N5CCN(CC6=C(c7ccc(Cl)cc7)CC(C)(C)CC6)CC5)cc4Oc4cnc5[nH]ccc5c4)cc([N+](=O)[O-])c3N2)CC1 [Example 1-3, (S)-2-((1H-pyrrolo[2,3-b]pyridin-5-yl)oxy)-4-(4-((4′-chloro-5,5-dimethyl-3,4,5,6-tetra-hydro-[1,1′-biphenyl]-2-yl)methyl)piperazin-1-yl)-N-((2-((4-methylpiperazin-1-yl)meth-yl)-7-nitroindolin-5-yl)sulfonyl)benzamide] | 20 | 8 | – | –
5 | COC[C@H]1COc2cc(S(=O)(=O)NC(=O)c3ccc(N4CCN(CC5=C(c6ccc(Cl)cc6)CC(C)(C)CC5)CC4)cc3Oc3cnc4[nH]ccc4c3)cc([N+](=O)[O-])c2N1 [Example 2-116, (S)-2-((1H-pyrrolo[2,3-b]pyridin-5-yl)oxy)-4-(4-((4′-chloro-5,5-dimethyl-3,4,5,6-tetra-hydro-[1,1′-biphenyl]-2-yl)methyl)piperazin-1-yl)-N-((3-(methoxymethyl)-5-nitro-3,4-dihydro-2H-benzo[b][1,4]oxazin-7-yl)sulfonyl)benzamide] | 83 | 16 | – | –
6 | CN(C)C[C@H]1Cc2cc(S(=O)(=O)NC(=O)c3ccc(N4CCN(CC5=C(c6ccc(Cl)cc6)CC(C)(C)CC5)CC4)cc3Oc3cnc4[nH]ccc4c3)cc([N+](=O)[O-])c2N1 [Example 1-10, (R)-2-((1H-pyrrolo[2,3-b]pyridin-5-yl)oxy)-4-(4-((4′-chloro-5,5-dimethyl-3,4,5,6-tetra-hydro-[1,1′-biphenyl]-2-yl)methyl)piperazin-1-yl)-N-((2-((dimethylamino)methyl)-7-nitroindolin-5-yl)sulfonyl)benzamide] | 33 | 16 | – | –
7 | COC(=O)NCC[C@@H]1COc2cc(S(=O)(=O)NC(=O)c3ccc(N4CCN(CC5=C(c6ccc(Cl)cc6)CC(C)(C)CC5)CC4)cc3Oc3cnc4[nH]ccc4c3)cc([N+](=O)[O-])c2N1 [Example 2-63, methyl (R)-(2-(7-(N-(2-((1H-pyrrolo[2,3-b]pyridin-5-yl)oxy)-4-(4-((4′-chloro-5,5-dimethyl-3,4,5,6-tetrahydro-[1,1′-biphenyl]-2-yl)methyl)piperazin-1-yl)benzoyl)sulfamoyl)-5-nitro-3,4-dihydro-2H-benzo[b][1,4]oxazin-3-yl)ethyl)carbamate] | 64 | 12 | – | –
8 | C[C@H]1CN(C[C@@H]2COc3cc(S(=O)(=O)NC(=O)c4ccc(N5CCN(CC6=C(c7ccc(Cl)cc7)CC(C)(C)CC6)CC5)cc4Oc4cnc5[nH]ccc5c4)cc([N+](=O)[O-])c3N2)CCO1 [Example 2-79, 2-((1H-pyrrolo[2,3-b]pyridin-5-yl)oxy)-4-(4-((4′-chloro-5,5-dimethyl-3,4,5,6-tetrahydro-[1,1′-biphenyl]-2-yl)methyl)piperazin-1-yl)-N-(((R)-3-(((S)-2-methylmorpholino)methyl)-5-nitro-3,4-dihydro-2H-benzo[b][1,4]oxazin-7-yl)sulfonyl)benzamide] | 55 | 7 | – | –
9 | CN(C)CC[C@@H]1CSc2cc(S(=O)(=O)NC(=O)c3ccc(N4CCN(CC5=C(c6ccc(Cl)cc6)CC(C)(C)CC5)CC4)cc3Oc3cnc4[nH]ccc4c3)cc([N+](=O)[O-])c2N1 [Example 3-13, (R)-2-((1H-pyrrolo[2,3-b]pyridin-5-yl)oxy)-4-(4-((4′-chloro-5,5-dimethyl-3,4,5,6-tetra-hydro-[1,1′-biphenyl]-2-yl)methyl)piperazin-1-yl)-N-((3-(2-(dimethylamino)ethyl)-5-nitro-3,4-dihydro-2H-benzo[b][1,4]thiazin-7-yl)sulfonyl)benzamide] | 2 | 2 | – | –
10 | C[C@H]1CN(C[C@H]2COc3cc(S(=O)(=O)NC(=O)c4ccc(N5CCN(CC6=C(c7ccc(Cl)cc7)CC(C)(C)CC6)CC5)cc4Oc4cnc5[nH]ccc5c4)cc([N+](=O)[O-])c3N2)CCN1C [Example 2-27, 2-((1H-pyrrolo[2,3-b]pyridin-5-yl)oxy)-4-(4-((4′-chloro-5,5-dimethyl-3,4,5,6-tetra-hydro-[1,1′-biphenyl]-2-yl)methyl)piperazin-1-yl)-N-(((S)-3-(((S)-3,4-dimethylpiperazin-1-yl)methyl)-5-nitro-3,4-dihydro-2H-benzo [b][1,4]oxazin-7-yl)sulfonyl)benzamide] | 12 | 1 | – | –
11 | CN1CCN(C[C@H]2CSc3cc(S(=O)(=O)NC(=O)c4ccc(N5CCN(CC6=C(c7ccc(Cl)cc7)CC(C)(C)CC6)CC5)cc4Oc4cnc5[nH]ccc5c4)cc([N+](=O)[O-])c3N2)CC1 [Example 3-9, (S)-2-((1H-pyrrolo[2,3-b]pyridin-5-yl)oxy)-4-(4-((4′-chloro-5,5-dimethyl-3,4,5,6-tetra-hydro-[1,1′-biphenyl]-2-yl)methyl)piperazin-1-yl)-N-((3-((4-methylpiperazin-1-yl)methyl)-5-nitro-3,4-dihydro-2H-benzo[b][1,4]thiazin-7-yl)sulfonyl)benzamide] | 24 | 13 | – | –
12 | C[C@@H]1CN(CC[C@H]2COc3cc(S(=O)(=O)NC(=O)c4ccc(N5CCN(CC6=C(c7ccc(Cl)cc7)CC(C)(C)CC6)CC5)cc4Oc4cnc5[nH]ccc5c4)cc([N+](=O)[O-])c3N2)CCO1 [Example 2-52, 2-((1H-pyrrolo[2,3-b]pyridin-5-yl)oxy)-4-(4-((4′-chloro-5,5-dimethyl-3,4,5,6-tetrahydro-[1,1′-biphenyl]-2-yl)methyl)piperazin-1-yl)-N-(((S)-3-(2-((R)-2-methylmorpholino)ethyl)-5-nitro-3,4-dihydro-2H-benzo[b][1,4]oxazin-7-yl)sulfonyl)benzamide] | 31 | 25 | – | –
13 | COCC[C@H]1CSc2cc(S(=O)(=O)NC(=O)c3ccc(N4CCN(CC5=C(c6ccc(Cl)cc6)CC(C)(C)CC5)CC4)cc3Oc3cnc4[nH]ccc4c3)cc([N+](=O)[O-])c2N1 [Example 3-16, (S)-2-((1H-pyrrolo[2,3-b]pyridin-5-yl)oxy)-4-(4-((4′-chloro-5,5-dimethyl-3,4,5,6-tetra-hydro-[1,1′-biphenyl]-2-yl)methyl)piperazin-1-yl)-N-((3-(2-methoxyethyl)-5-nitro-3,4-dihydro-2H-benzo[b][1,4]thiazin-7-yl)sulfonyl)benzamide] | 132 | 33 | – | –
14 | CC1(C)CCC(c2ccc(Cl)cc2)=C(CN2CCN(c3ccc(C(=O)NS(=O)(=O)c4cc5c(c([N+](=O)[O-])c4)N[C@H](C4CCOCC4)CO5)c(Oc4cnc5[nH]ccc5c4)c3)CC2)C1 [Example 2-213, (R)-2-((1H-pyrrolo[2,3-b]pyridin-5-yl)oxy)-4-(4-((4′-chloro-4,4-dimethyl-3,4,5,6-tetra-hydro-[1,1′-biphenyl]-2-yl)methyl)piperazin-1-yl)-N-((5-nitro-3-(tetrahydro-2H-pyran-4-yl)-3,4-dihydro-2H-benzo[b][1,4]oxazin-7-yl)sulfonyl)benzamide] | 41 | 8 | – | –
15 | CC1(C)CCC(CN2CCN(c3ccc(C(=O)NS(=O)(=O)c4cc5c(c([N+](=O)[O-])c4)N[C@@H](CC4CCC(O)CC4)CO5)c(Oc4cnc5[nH]ccc5c4)c3)CC2)=C(c2ccc(Cl)cc2)C1 (single isomer, unassigned) [Example 2-244B] | – | – | 1 | 3
16 | CC1(C)CCC(CN2CCN(c3ccc(C(=O)NS(=O)(=O)c4cc5c(c([N+](=O)[O-])c4)N[C@H](CCN4CCC(C)(O)CC4)CO5)c(Oc4cnc5[nH]ccc5c4)c3)CC2)=C(c2ccc(Cl)cc2)C1 [Example 2-15, (R)-2-((1H-pyrrolo[2,3-b]pyridin-5-yl)oxy)-4-(4-((4′-chloro-5,5-dimethyl-3,4,5,6-tetra-hydro-[1,1′-biphenyl]-2-yl)methyl)piperazin-1-yl)-N-((3-(2-(4-hydroxy-4-methylpiper-idin-1-yl)ethyl)-5-nitro-3,4-dihydro-2H-benzo[b][1,4]oxazin-7-yl)sulfonyl)benzamide] | 50 | 20 | – | –
